From PubChem BioAssay AID1671426

Biological target: Proto-oncogene tyrosine-protein kinase Src (Homo sapiens) (UniProt P12931)
Experiment: PubChem AID 1671426
Conditions: Z'-LYTE FRET kinase activity, recombinant SRC N1

Sequence of Proto-oncogene tyrosine-protein kinase Src (Homo sapiens) (P12931 whole entry, looked up): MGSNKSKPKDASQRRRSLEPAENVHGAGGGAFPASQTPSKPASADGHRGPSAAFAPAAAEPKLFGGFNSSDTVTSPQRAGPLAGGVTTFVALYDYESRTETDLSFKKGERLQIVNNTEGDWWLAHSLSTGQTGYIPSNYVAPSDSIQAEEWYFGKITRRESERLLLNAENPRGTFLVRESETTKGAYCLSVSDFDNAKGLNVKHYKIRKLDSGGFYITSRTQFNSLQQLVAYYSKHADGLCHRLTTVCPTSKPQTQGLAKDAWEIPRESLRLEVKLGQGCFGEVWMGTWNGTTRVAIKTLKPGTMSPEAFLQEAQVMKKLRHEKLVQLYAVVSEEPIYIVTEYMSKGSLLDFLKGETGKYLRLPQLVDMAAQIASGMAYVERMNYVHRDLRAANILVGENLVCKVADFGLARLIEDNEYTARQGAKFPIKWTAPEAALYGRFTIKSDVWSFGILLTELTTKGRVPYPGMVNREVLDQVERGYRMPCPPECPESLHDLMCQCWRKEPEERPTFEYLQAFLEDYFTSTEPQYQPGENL

IC50: 1.98 µM
SMILES: COc1cc2ncnc(Nc3cccc(Cl)c3)c2cc1OC
